US20210121482A1, “WITHANOLIDES FOR THE TREATMENT OF CACHEXIA” (University of Louisville Research Foundation, Inc., priority 2019, published 2021)

Legend:
[1] = tested on: Pax7, Myod1, UPR, UPS and ALS markers in GA muscle; assay: qPCR of GA muscle (Pax7, Myod1, UPR, UPS, ALS markers); format: in vivo, Mus musculus
Procedure: (§1) Total RNA Extraction and qPCR: Isolation of total RNA from xenografted tumor samples was performed using an RNeasy® Mini Kit (Qiagen Catalog #74104) according to the manufacturer's instructions. Isolation of total RNA from skeletal muscle was performed using an RNeasy® Fibrous Tissue Mini Kit (Qiagen Catalog #74704) according to the manufacturer's instructions. First strand cDNA was synthesized using 1 μg of purified RNA and a commercially available kit (iScript™ cDNA synthesis, Bio-Rad Catalog #170-8891), Quantification of mRNA expression was performed similar to as previously described (Hindi and Kumar, 2016) using the SYBR Green dye method on a StepOnePlus™ system (Applied Biosystems) using gene-specific primers, as shown in Table 1.
Total RNA Extraction and qPCR: as in Example 1.

[2] = tested on: Caspase 1, NLRP3, IL-1β, IL-18, HO-1; assay: IHC of NLRP3 inflammasome proteins in tumor samples; format: in vivo, mice
Procedure: (§2) Immunohistochemistry of Tumor Tissue: For the detection of various proteins, 10 μm thick sections were made from the midsection of tumor samples. A hydrophobic boundary was drawn around the sections and then they were fixed in 3.7% formaldehyde solution for 10 minutes. The slides were washed three times with 1×PBS for 5 minutes each. The sections were then blocked in 2% BSA in PBS for 30 minutes. The sections were then incubated with primary antibodies (1:100 dilution) overnight in a humidity chamber at 4° C. The sections were then washed three times with 1×PBS for 5 minutes. The slides were incubated in appropriate secondary antibodies (1:2000 dilution) for 45-60 minutes. Sections were counterstained with DAPI (1:2500 dilution) for 5 minutes to visualize nuclei. Slides were then washed twice in 1×PBS for 5 minutes, and then mounted for visualization. Nonspecific background staining was determined by performing the above protocol with omitting the inclusion of the primary antibodies. Refer to Table 2 for a complete list of antibodies utilized.

[3] = tested on: A2780 ovarian cancer xenograft; conditions: mouse, in vivo
Procedure: Tumor-bearing groups received an IP injection of 1.0×10^6 low passage A2780 cells suspended in 100 μl sterile PBS.
Graphical Display and Statistical Analyses: The majority of the results were expressed as box-and-whisker plots with the box comprised of the first, second, and third quartiles, and the lower and upper whiskers corresponding to the minimum and maximum values, respectively, to display the entire range of data. A Kaplan-Meier curve was used for the survival analysis. Statistical analysis of the data was performed using one-way analysis of variance (ANOVA) followed by Tukey's Honestly Significant Difference Test (HSDT) post hoc analysis or the Mantel-Cox log-rank test to determine statistically significant differences between groups with GraphPad Prism 8.0.1 software for Mac (La Jolla, Calif., USA). A value of P<0.05 was considered statistically significant, unless otherwise specified.

[4] = tested on: TNFα, IFNγ, IL-6, IL-8, IL-18 in tumor samples; assay: Human MAP multiplex assay of tumor samples; format: in vivo; conditions: vs vehicle treated group
Source text: Samples were minced on ice with sterilized scissors.

[5] = tested on: phospho-p65 (NF-κB); assay: Western blot and IHC of p65 in tumor samples; format: in vivo, mice; conditions: 2 and 6 mg/kg
Procedure: as §2
Protein Extraction and Western Blotting: Tumor samples were homogenized in chilled RIPA buffer (Sigma) supplemented with a Complete Mini Protease Inhibitor tablet (Roche Molecular Biochemicals, Indianapolis, Ind.). Tissue lysates were centrifuged at 10,000 RPM and the supernatants were collected. Protein concentration for each sample was determined using the Bradford reagent method (Bio-Rad), according to manufacturer's instructions. Protein lysates ([…]) were separated on 10% SDS-PAGE gels at 100 volts for 2 h. The proteins were transferred to nitrocellulose membranes at 100 volts for 90 minutes. The membranes were blocked with 5% non-fat milk in Tris-buffered saline supplemented with Tween®20 (0.5%; TBS-T) for 30-60 minutes. The membranes were then washed 3 times with TBS-T for 5 minutes. The membranes were then incubated with primary antibody at 4° C. overnight. […]

[6] = tested on: SKOV3; conditions: SKOV3 cells; cited from earlier work
[7] = tested on: inflammatory cytokines and NLRP3 inflammasome markers in TA muscle; assay: qPCR of TA muscle; format: in vivo, Mus musculus
Procedure: as §1

[8] = Body and organ weight, A2780 xenograft mice (Example 1); conditions: for BW Week 2 / BW Week 3 / BW Week 1 / Initial BW / Kidney weight normalized / Liver weight normalized / Spleen weight normalized: tumor-bearing; for Initial BW: baseline, before treatment
[9] = tested on: Ang II; assay: Plasma Ang II ELISA; format: in vivo, mice; conditions: tumor-bearing
Procedure: Plasma Ang II levels were measured with an enzyme-linked immunosorbent assay (ELISA). Blood samples were collected in tubes containing ethylenediaminetetraacetic acid (EDTA) (25 mM), o-phenanthroline (0.44 mM), pepstatin A (0.12 mM), and p-hydroxymercuribenzoic acid (1 mM) and then centrifuged at 1200×g for 10 min. The plasma was collected and stored at −80° C. until further processing. Ang II levels were quantified by using a commercially available ELISA kit according to the manufacturer's instructions (Sigma-Aldrich Catalog #MAK190).

[10] = tumor-bearing, 2 mg/kg, vs tumor-bearing vehicle
[11] = tumor-bearing, 4 mg/kg, vs tumor-bearing vehicle
[12] = tumor-bearing, 2 and 4 mg/kg, vs tumor-bearing vehicle
[13] = tumor-free, 4 mg/kg, vs tumor-free vehicle
[14] = tumor-free, WFA-treated groups vs vehicle-treated
[15] = 2 mg/kg, vs vehicle treated group
[16] = 6 mg/kg, vs vehicle treated group
[17] = WFA 2 mg/kg IP every three days
[18] = WFA 6 mg/kg IP every three days

## CC1=C(CO)C(=O)O[C@@H]([C@@H](C)[C@H]2CC[C@H]3[C@@H]4C[C@H]5O[C@]56[C@@H](O)C=CC(=O)[C@]6(C)[C@H]4CC[C@]23C)C1 [WFA, (4β,5β,6β,22R)-4,27-Dihydroxy-5,6:22,26-diepoxyergosta-2,24-diene-1,26-dione]
[1]; [10]
  relative transcript levels of Ddit3 in GA muscle: upregulation of relative transcript levels of Ddit3
  relative transcript levels of Ern1 in GA muscle: no significant difference in relative transcript levels of Ern1
  transcript levels of Eif2ak3, Atf4, Pppr1r15a, Hspa5, Hsp90B1, Tnfrsf10B in GA muscle: reduction in Eif2ak3, Atf4, Pppr1r15a, Hspa5, Hsp90B1, and Tnfrsf10B
[1]; [11]
  relative transcript levels of Ddit3 and Ern1 in GA muscle: significant increase in relative transcript levels of Ddit3 and Ern1
  transcript levels of Eif2ak3, Atf4, Pppr1r15a, Hspa5, Hsp90B1, Tnfrsf10B in GA muscle: decrease in relative transcript levels of Eif2ak3, Atf4, Pppr1r15a, Hspa5, Hsp90B1, and Tnfrsf10B
[1]; [12]
  relative mRNA expression of Sqstm1, Map1lc3b, Becn1: significant dose-dependent reduction in relative mRNA expression of the select ALS markers
  transcription of Fbxo30, Fbxo32, Trim63, Traf6: statistically significant dose-dependent transcriptional downregulation of Fbxo30, Fbxo32, Trim63, and Traf6
[1]; tumor-free and tumor-bearing WFA-treated groups
  relative transcript levels of Pax7 and Myod1 in GA muscle: significant increases in both Pax7 and Myod1
[1]; tumor-free, 2 mg/kg, vs vehicle-treated
  relative transcriptional expression of Fbxo30 and Traf6: significant reduction in the relative transcriptional expression of Fbxo30 and Traf6
[1]; [13]
  relative gene expression of Fbxo30, Fbxo32, Trim63, Traf6: significant reduction in relative gene expression of Fbxo30, Fbxo32, Trim63, and Traf6
  relative gene expression of Sqstm1, Map1lc3b, Becn1: significant reduction in relative gene expression
[1]; [14]
  transcript levels of Atf4 and Tnfrsf10B in GA muscle: no change in transcript levels of Atf4 and Tnfrsf10B
  transcript levels of Eif2ak3, Ddit3, Pppr1r15a, Ern1 in GA muscle: transcriptional upregulation of Eif2ak3, Ddit3, Pppr1r15a, and Ern1
  transcript levels of Hspa5 and Hsp90B1 in GA muscle: downregulation of Hspa5 and Hsp90B1
[2]; 2 mg/kg
  expression of IL-1β, IL-18 and HO-1 in tumor (IHC): drastically lowered the expression of IL-1β and IL-18 and increased the expression of HO-1
[2]; 6 mg/kg
  expression of IL-1β, IL-18 and HO-1 in tumor (IHC): intermediate expression of all three proteins
[2]; 2 and 6 mg/kg, vs vehicle treated group
  Caspase 1 and NLRP3 staining in tumor (IHC): reduction in Caspase 1 and NLRP3 staining
[3]
  toxicity of high dose: turned out to be toxic
[4]; 2 and 6 mg/kg
  cytokine levels of IL-18 in tumor (multiplex): significant reduction in the cytokine levels of IL-18
[4]; high dose (6 mg/kg)
  levels of TNFα, IFNγ, IL-6, IL-8 in tumor (multiplex): mixed result of up- and downregulation of proinflammatory cytokines
[4]; low dose (2 mg/kg)
  levels of TNFα, IFNγ, IL-6, IL-8 in tumor (multiplex): significantly reduced the expression of all proinflammatory cytokines tested
[5]
  phospho-p65 co-localized with DAPI (nuclear translocation): impairment in the translocation of p65 to the nucleus
[5]; vs vehicle treated group
  phospho-p65 staining in tumor cells (IHC): severely diminished
  protein levels of phospho- and total p65 in tumor (immunoblot): robust decrease in the protein levels of phospho- and total p65
[6]
  cell cycle arrest and apoptosis: induces cell cycle arrest and the induction of apoptosis
[7]; [15]
  relative mRNA levels of TNFα, IFNγ, IL-6, MIP-2 in TA muscle: significantly reduced
  transcript levels of HO-1 in TA muscle: increased compared to the vehicle treated group
  transcript levels of NLRP3, CASP1, IL-1β, IL-18 in TA muscle: significant reduction in all tested NLRP3 inflammasome transcript levels
[7]; 6 mg/kg, vs control and WFA 2 mg/kg groups
  relative mRNA levels of TNFα, IFNγ, IL-6, MIP-2 in TA muscle: robust increase in the expression of select proinflammatory cytokines
[7]; 6 mg/kg, vs control group
  transcript levels of CASP1 and IL-1β in TA muscle: significantly increased
[7]; 6 mg/kg, vs control or vehicle treated groups
  transcript levels of HO-1 in TA muscle: no significant changes in HO-1 expression
[7]; [16]
  relative mRNA levels of NLRP3 and IL-18 in TA muscle: significantly reduced
  relative transcript levels of IFNγ and MIP-2 in TA muscle: significantly reduced
[7]; 6 mg/kg, vs vehicle treated group (p=0.09 and <0.0001)
  relative transcript levels of TNFα and IL-6 in TA muscle: increased
[8]; 2 and 6 mg/kg, at termination of study, all groups compared
  body weight fold change: No statistically significant difference between the groups
[8]; [17]
  BW Week 2: 20.43 ± 2.43 g
  BW Week 3: 22.68 ± 2.53 g
[8]; WFA 2 mg/kg group
  BW Week 1: 19.98 ± 2.33 g
  Initial BW: 19.14 ± 1.50 g
[8]; WFA 2 mg/kg
  Kidney weight normalized: 4.95 ± 0.79 mg/g
  Liver weight normalized: 47.16 ± 15.88 mg/g
  Spleen weight normalized: 2.20 ± 1.74 mg/g
[8]; [18]
  BW Week 2: 21.37 ± 1.32 g
  BW Week 3: 23.57 ± 1.23 g
[8]; WFA 6 mg/kg group
  BW Week 1: 20.70 ± 1.35 g
  Initial BW: 19.60 ± 0.76 g
[8]; WFA 6 mg/kg
  Kidney weight normalized: 5.45 ± 0.49 mg/g
  Liver weight normalized: 41.18 ± 3.60 mg/g
  Spleen weight normalized: 2.78 ± 1.45 mg/g
[9]; WFA 2 mg/kg
  plasma Ang II levels: 2.15 ± 0.015 ng/mL
[9]; WFA 4 mg/kg
  plasma Ang II levels: 2.07 ± 0.08 ng/mL
